We go through 19 compounds from PubChem BioAssay AID192 (DTP/NCI, 2004).

In this test the test system is BDF1 mice, B16 melanoma ip, median survival T/C. Briefly: NCI In Vivo Anticancer Drug Screen. Data for tumor model B16 Melanoma (intraperitoneal) in B6D2F1 (BDF1) mice. The conditions noted are these: endpoint: median survival time, higher = longer survival. A digest of the protocol:
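Values are ratios of treated (T) to vehicle-control (C) measurements of survival or tumor size in tumor-bearing mice.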

[1] abbreviates: dose: 3.0 mg/kg/injection, schedule: Q01DX009 (ip), vehicle: saline with Tween-80.
The mark [2] stands for this setting: dose: 100.0 mg/kg/injection, schedule: Q04DX003 (ip), vehicle: Klucel (hydroxypropylcellulose) (HPC).
Setting [3] is: dose: 200.0 mg/kg/injection, schedule: Q04DX003 (ip), vehicle: Klucel (hydroxypropylcellulose) (HPC).
Setting [4] is: dose: 400.0 mg/kg/injection, schedule: Q04DX003 (ip), vehicle: Klucel (hydroxypropylcellulose) (HPC).
Setting [5] is: dose: 50.0 mg/kg/injection, schedule: Q01DX009 (ip), vehicle: Klucel (hydroxypropylcellulose) (HPC).
Setting [6] is: dose: 100.0 mg/kg/injection, schedule: Q01DX009 (ip), vehicle: Klucel (hydroxypropylcellulose) (HPC).
Setting [7] is: dose: 200.0 mg/kg/injection, schedule: Q01DX009 (ip), vehicle: Klucel (hydroxypropylcellulose) (HPC).
[8] abbreviates: dose: 100.0 mg/kg/injection, schedule: Q04DX003 (ip), vehicle: saline with Tween-80.
Where [9] appears, read: dose: 200.0 mg/kg/injection, schedule: Q04DX003 (ip), vehicle: saline with Tween-80.
The mark [10] stands for this setting: dose: 400.0 mg/kg/injection, schedule: Q01DX009 (ip), vehicle: Klucel (hydroxypropylcellulose) (HPC).
[11] abbreviates: dose: 12.5 mg/kg/injection, schedule: Q01DX009 (ip), vehicle: Klucel (hydroxypropylcellulose) (HPC).
Where [12] appears, read: dose: 25.0 mg/kg/injection, schedule: Q01DX009 (ip), vehicle: Klucel (hydroxypropylcellulose) (HPC).

Where “and” joins values, the source holds several entries; their conditions need not be identical. Equal entries are not always repeated. Inconclusive results and toxic doses are left out.

For the compound `CCC[CH2][Sn]1([CH2]CCC)[O]OC(c2ccccc2)[O]1` (centres undefined), the T/C is 98 % of control (dose: 0.19 mg/kg/injection, schedule: Q01DX009 (ip), vehicle: Klucel (hydroxypropylcellulose) (HPC)); 87 % of control (dose: 0.38 mg/kg/injection, schedule: Q01DX009 (ip), vehicle: Klucel (hydroxypropylcellulose) (HPC)); 107 % of control (dose: 0.75 mg/kg/injection, schedule: Q01DX009 (ip), vehicle: Klucel (hydroxypropylcellulose) (HPC)); 102 % of control (dose: 1.5 mg/kg/injection, schedule: Q01DX009 (ip), vehicle: Klucel (hydroxypropylcellulose) (HPC)); 101 % of control (dose: 3.0 mg/kg/injection, schedule: Q01DX009 (ip), vehicle: Klucel (hydroxypropylcellulose) (HPC)); 102 % of control under setting [1].

In the case of `COc1ccc2c(c1)N(CCCN(C)C)c1ccccc1S2`, the T/C by setting is: (dose: 2.34 mg/kg/injection, schedule: Q01DX009 (ip), vehicle: saline) 102 % of control; (dose: 4.68 mg/kg/injection, schedule: Q01DX009 (ip), vehicle: saline) 110 % of control; (dose: 18.75 mg/kg/injection, schedule: Q01DX009 (ip), vehicle: saline) 102 % of control; (dose: 37.5 mg/kg/injection, schedule: Q01DX009 (ip), vehicle: saline) 110 % of control.

As to `O=[N+]([O-])O.[NH-]C1CCCCC1[NH-].[NH-]C1CCCCC1[NH-].[OH-].[OH-].[Pt+4].[Pt+4]` (centres undefined), the T/C was 110 % of control and 111 % of control (dose: 0.25 mg/kg/injection, schedule: Q01DX009 (ip), vehicle: water); 120 % of control and 124 % of control (dose: 0.5 mg/kg/injection, schedule: Q01DX009 (ip), vehicle: water).

For the compound `OCCN1CCN(CCCN2c3ccccc3CCc3ccccc32)CC1`, the T/C reads like this: (dose: 3.9 mg/kg/injection, schedule: Q01DX009 (ip), vehicle: saline) 95 % of control; (dose: 7.81 mg/kg/injection, schedule: Q01DX009 (ip), vehicle: saline) 93 % of control; (dose: 15.62 mg/kg/injection, schedule: Q01DX009 (ip), vehicle: saline) 100 % of control; (dose: 31.25 mg/kg/injection, schedule: Q01DX009 (ip), vehicle: saline) 97 % of control; (dose: 62.5 mg/kg/injection, schedule: Q01DX009 (ip), vehicle: saline) 95 % of control.

Turning to `COc1cc(C=Nc2ccc(-n3ccnc3C)cc2)ccc1N(CCCl)CCCl`, the T/C (dose: 2.5 mg/kg/injection, schedule: Q01DX009 (ip), vehicle: Klucel (hydroxypropylcellulose) (HPC)) was 105 % of control.

Take `Cc1cc2nc(CBr)c(CBr)nc2cc1C`: the T/C is, setting by setting: (dose: 0.1 mg/kg/injection, schedule: Q01DX009 (ip), vehicle: saline with Tween-80) 86 % of control; (dose: 0.2 mg/kg/injection, schedule: Q01DX009 (ip), vehicle: saline with Tween-80) 86 % of control; (dose: 0.4 mg/kg/injection, schedule: Q01DX009 (ip), vehicle: saline with Tween-80) 92 % of control; (dose: 0.75 mg/kg/injection, schedule: Q01DX009 (ip), vehicle: saline with Tween-80) 107 % of control; (dose: 0.8 mg/kg/injection, schedule: Q01DX009 (ip), vehicle: saline with Tween-80) 94 % of control; (dose: 1.5 mg/kg/injection, schedule: Q01DX009 (ip), vehicle: saline with Tween-80) 97 % of control. Also, the T/C is, setting by setting: under setting [1], 97 % of control; (dose: 6.0 mg/kg/injection, schedule: Q01DX009 (ip), vehicle: saline with Tween-80) 89 % of control.

`COc1cccc2c1C(=O)c1c(O)c3c(c(O)c1C2=O)C[C@@](O)(C(C)=O)C[C@@H]3OC1CC(N2CCOCC2C#N)C(O)C(C)O1` (some centres undefined): the T/C runs as follows: (dose: 9.38 micrograms/kg/injection, schedule: Q01DX001 (ip), vehicle: distilled water + Tween-80) 117 % of control; (dose: 18.75 micrograms/kg/injection, schedule: Q01DX001 (ip), vehicle: water) 107 % of control; (dose: 75.0 micrograms/kg/injection, schedule: Q01DX001 (ip), vehicle: water) 112 % of control.

Consider `COC(=O)C1(C(=O)OC)C2C(=O)C3C(C21)C3(C(=O)OC(C)(C)C)C(=O)OC(C)(C)C` (centres undefined), for which the T/C was 111 % of control under setting [2], 101 % of control under setting [3] and 98 % of control under setting [4].

For `Cc1ccc(Cl)cc1NS(=O)(=O)c1cccc([N+](=O)[O-])c1`, the T/C is 111 % of control (dose: 50.0 mg/kg/injection, schedule: Q01DX009 (ip), vehicle: saline with Tween-80); 107 % of control (dose: 100.0 mg/kg/injection, schedule: Q01DX009 (ip), vehicle: saline with Tween-80); 100 % of control (dose: 200.0 mg/kg/injection, schedule: Q01DX009 (ip), vehicle: saline with Tween-80).

For the compound `O=C(O)C1c2ccccc2Cc2ccccc21`, the T/C (dose: 37.5 mg/kg/injection, schedule: Q04DX003 (ip), vehicle: Klucel (hydroxypropylcellulose) (HPC)) is 122 % of control; the T/C under setting [5] is 97 % of control; the T/C (dose: 75.0 mg/kg/injection, schedule: Q04DX003 (ip), vehicle: Klucel (hydroxypropylcellulose) (HPC)) is 119 % of control; the T/C under setting [6] was 100 % of control; the T/C (dose: 150.0 mg/kg/injection, schedule: Q04DX003 (ip), vehicle: Klucel (hydroxypropylcellulose) (HPC)) was 119 % of control; the T/C under setting [7] is 105 % of control.

For `FC(F)(F)c1ccc2c(c1)N(CCCN1CC[N+]3(CCOCC3)CC1)c1ccccc1S2`, the T/C is, setting by setting: (dose: 0.5 mg/kg/injection, schedule: Q01DX009 (ip), vehicle: saline) 105 % of control; (dose: 1.0 mg/kg/injection, schedule: Q01DX009 (ip), vehicle: saline) 94 % of control and 102 % of control; (dose: 2.0 mg/kg/injection, schedule: Q01DX009 (ip), vehicle: saline) 100 % of control and 105 % of control; (dose: 4.0 mg/kg/injection, schedule: Q01DX009 (ip), vehicle: saline) 94 % of control.

Turning to `O=C(OCc1ccccc1)C(Cl)(Cl)Cl`, the T/C runs as follows: under setting [8], 105 % of control; under setting [9], 100 % of control; (dose: 400.0 mg/kg/injection, schedule: Q04DX003 (ip), vehicle: saline with Tween-80) 102 % of control.

As for `O=c1[nH]c(=O)c2nc(-c3cccnc3)cnc2[nH]1`, the T/C is, setting by setting: (dose: 12.5 mg/kg/injection, schedule: Q01DX009 (ip), vehicle: saline) 104 % of control; (dose: 25.0 mg/kg/injection, schedule: Q01DX009 (ip), vehicle: saline) 93 % of control; (dose: 50.0 mg/kg/injection, schedule: Q01DX009 (ip), vehicle: saline) 97 % of control; (dose: 100.0 mg/kg/injection, schedule: Q01DX009 (ip), vehicle: saline) 89 % of control.

In the case of `COc1ccc(NC(=O)Oc2ccc(-c3ccccc3)cc2Br)cc1`, the T/C reads like this: under setting [6], 93 % of control; under setting [2], 103 % of control; under setting [7], 93 % of control; under setting [3], 112 % of control; under setting [10], 96 % of control; under setting [4], 109 % of control.

As to `CNCCNc1ccc(NCCNC)c2c1C(=O)c1ccccc1C2=O`, the T/C (dose: 2.0 mg/kg/injection, schedule: Q01DX009 (ip), vehicle: acid diluted with saline) is 156 % of control; the T/C (dose: 4.0 mg/kg/injection, schedule: Q01DX009 (ip), vehicle: acid diluted with saline) was 230 % of control; the T/C (dose: 8.0 mg/kg/injection, schedule: Q01DX009 (ip), vehicle: acid diluted with saline) was 231 % of control.

Take `OC(C#Cc1ccccc1)c1ccccc1` (centres undefined): the T/C is, setting by setting: (dose: 50.0 mg/kg/injection, schedule: Q04DX003 (ip), vehicle: saline with Tween-80) 108 % of control; under setting [8], 97 % of control; under setting [9], 98 % of control.

As to `CCCCCOc1ccc(C(=O)CC(=O)OCC)cc1`, the T/C runs as follows: under setting [6], 93 % of control; under setting [7], 106 % of control; under setting [10], 93 % of control.

`CN(C)c1ccc2c(N(C)C)cc(N(C)C)nc2c1`: the T/C was 99 % of control (dose: 3.12 mg/kg/injection, schedule: Q01DX009 (ip), vehicle: Klucel (hydroxypropylcellulose) (HPC)); 107 % of control (dose: 6.25 mg/kg/injection, schedule: Q01DX009 (ip), vehicle: Klucel (hydroxypropylcellulose) (HPC)); 97 % of control under setting [11]; 108 % of control under setting [12]; 102 % of control under setting [5].

With `CCCCCCCCCCCCCCCCC(C(=O)O)C(O)(CC(=O)O)C(=O)O` (centres undefined), the T/C was 101 % of control under setting [11] and 90 % of control under setting [12].
